Literature values, collected in patent US10783985B2, “Physics-based computational methods for predicting compound solubility” (Schrödinger, LLC, priority 2015, dated 2020).

Details: for Expt. Solubility: Table 1, experimentally determined
[1] = experimental, Ilevbare and Taylor 2013

COc1ccc2c(c1)c(CC(=O)O)c(C)n2C(=O)c1ccc(Cl)cc1 [indomethacin]
Expt. Solubility: 8.38 µM

Clc1ccccc1C(c1ccccc1)(c1ccccc1)n1ccnc1 [clotrimazole]
Expt. Solubility: 1.16 µM

CC(=O)Nc1ccc(O)cc1 [acetaminophen]
aqueous solubility (experimental, NIH Pubchem database, printed conversion of the mg/L value): ~36,000 μM

CCOC(=O)C1=C(C)NC(C)=C(C(=O)OC)C1c1cccc(Cl)c1Cl (stereo not shown) [felodipine]
"amorphous" solubility [1]: 22.1 µM | "equilibrium" solubility [1]: 2.5 µM | solubility class (BCS), experimental data (felodipine comparison data): low solubility (BCS Class II/IV)

CN1CCN(C2=Nc3cc(Cl)ccc3Nc3ccccc32)CC1 [clozapine]
Expt. Solubility: 26.93 µM
